Source: ChEMBL document CHEMBL4507301 (2021)

Columns and labels:
[1] = test system: Tyrosine-protein kinase ABL1 (Homo sapiens), P00519 [F317L]; conditions: Compound concentration 1000.0 nM
[2] = target: Activin receptor type-2A (Homo sapiens) (UniProt P27037); conditions: Compound concentration 1000.0 nM
[3] = target: Atypical kinase COQ8A, mitochondrial (Homo sapiens) (UniProt Q8NI60); conditions: Compound concentration 1000.0 nM
[4] = target: RAC-alpha serine/threonine-protein kinase (Homo sapiens) (UniProt P31749); conditions: Compound concentration 1000.0 nM
[5] = target: Serine/threonine-protein kinase BRSK1 (Homo sapiens) (UniProt Q8TDC3); conditions: Compound concentration 1000.0 nM
[6] = target: Peripheral plasma membrane protein CASK (Homo sapiens) (UniProt O14936); conditions: Compound concentration 1000.0 nM
[7] = target: Cyclin-dependent kinase 13 (Homo sapiens) (UniProt Q14004); conditions: Compound concentration 1000.0 nM
[8] = target: Cyclin-dependent kinase 3 (Homo sapiens) (UniProt Q00526); conditions: Compound concentration 1000.0 nM
[9] = target: Cyclin-dependent kinase-like 3 (Homo sapiens) (UniProt Q8IVW4); conditions: Compound concentration 1000.0 nM
[10] = target: Citron Rho-interacting kinase (Homo sapiens) (UniProt O14578); conditions: Compound concentration 1000.0 nM
[11] = target: Megakaryocyte-associated tyrosine-protein kinase (Homo sapiens) (UniProt P42679); conditions: Compound concentration 1000.0 nM
[12] = target: Discoidin domain-containing receptor 2 (Homo sapiens) (UniProt Q16832); conditions: Compound concentration 1000.0 nM
[13] = target: Ephrin type-A receptor 1 (Homo sapiens) (UniProt P21709); conditions: Compound concentration 1000.0 nM
[14] = target: Ephrin type-A receptor 6 (Homo sapiens) (UniProt Q9UF33); conditions: Compound concentration 1000.0 nM
[15] = target: Ephrin type-B receptor 2 (Homo sapiens) (UniProt P29323); conditions: Compound concentration 1000.0 nM
[16] = target: Ephrin type-B receptor 3 (Homo sapiens) (UniProt P54753); conditions: Compound concentration 1000.0 nM
[17] = target: Mitogen-activated protein kinase 3 (Homo sapiens) (UniProt P27361); conditions: Compound concentration 1000.0 nM
[18] = target: Fibroblast growth factor receptor 2 (Homo sapiens) (UniProt P21802); conditions: Compound concentration 1000.0 nM
[19] = target: Tyrosine-protein kinase Fgr (Homo sapiens) (UniProt P09769); conditions: Compound concentration 1000.0 nM
[20] = target: Tyrosine-protein kinase FRK (Homo sapiens) (UniProt P42685); conditions: Compound concentration 1000.0 nM
[21] = target: Mitogen-activated protein kinase kinase kinase kinase 1 (Homo sapiens) (UniProt Q92918); conditions: Compound concentration 1000.0 nM
[22] = target: Insulin receptor-related protein (Homo sapiens) (UniProt P14616); conditions: Compound concentration 1000.0 nM
[23] = target: Tyrosine-protein kinase JAK2 (Homo sapiens) (UniProt O60674); conditions: Compound concentration 1000.0 nM
[24] = target: Mitogen-activated protein kinase kinase kinase kinase 5 (Homo sapiens) (UniProt Q9Y4K4); conditions: Compound concentration 1000.0 nM
[25] = target: Dual specificity mitogen-activated protein kinase kinase 3 (Homo sapiens) (UniProt P46734); conditions: Compound concentration 1000.0 nM
[26] = target: Dual specificity mitogen-activated protein kinase kinase 4 (Homo sapiens) (UniProt P45985); conditions: Compound concentration 1000.0 nM
[27] = target: Myosin-IIIa (Homo sapiens) (UniProt Q8NEV4); conditions: Compound concentration 1000.0 nM
[28] = target: Serine/threonine-protein kinase Nek7 (Homo sapiens) (UniProt Q8TDX7); conditions: Compound concentration 1000.0 nM
[29] = target: Mitogen-activated protein kinase 11 (Homo sapiens) (UniProt Q15759); conditions: Compound concentration 1000.0 nM
[30] = target: Mitogen-activated protein kinase 12 (Homo sapiens) (UniProt P53778); conditions: Compound concentration 1000.0 nM
[31] = target: 3-phosphoinositide-dependent protein kinase 1 (Homo sapiens) (UniProt O15530); conditions: Compound concentration 1000.0 nM
[32] = target: Phosphatidylinositol 5-phosphate 4-kinase type-2 gamma (Homo sapiens) (UniProt Q8TBX8); conditions: Compound concentration 1000.0 nM
[33] = target: Serine/threonine-protein kinase PLK3 (Homo sapiens) (UniProt Q9H4B4); conditions: Compound concentration 1000.0 nM
[34] = target: Proto-oncogene tyrosine-protein kinase receptor Ret (Homo sapiens) (UniProt P07949); conditions: Compound concentration 1000.0 nM
[35] = target: Ribosomal protein S6 kinase alpha-5 (Homo sapiens) (UniProt O75582); conditions: Compound concentration 1000.0 nM
[36] = target: Ribosomal protein S6 kinase alpha-1 (Homo sapiens) (UniProt Q15418); conditions: Compound concentration 1000.0 nM
[37] = target: Ribosomal protein S6 kinase alpha-1 (Homo sapiens) (UniProt Q15418); conditions: Compound concentration 1000.0 nM; remark: listed apart in the source
[38] = target: Serine/threonine-protein kinase TAO2 (Homo sapiens) (UniProt Q9UL54); conditions: Compound concentration 1000.0 nM
[39] = target: TGF-beta receptor type-1 (Homo sapiens) (UniProt P36897); conditions: Compound concentration 1000.0 nM
[40] = target: Non-receptor tyrosine-protein kinase TYK2 (Homo sapiens) (UniProt P29597); conditions: Compound concentration 1000.0 nM
[41] = target: Serine/threonine-protein kinase ULK3 (Homo sapiens) (UniProt Q6PHR2); conditions: Compound concentration 1000.0 nM
[42] = target: 5-hydroxytryptamine receptor 6 (Homo sapiens) (UniProt P50406); conditions: Compound concentration 10.0 uM
[43] = target: D(1B) dopamine receptor (Homo sapiens) (UniProt P21918); conditions: Compound concentration 10.0 uM
[44] = target: Muscarinic acetylcholine receptor M1 (Homo sapiens) (UniProt P11229); conditions: Compound concentration 10.0 uM
Rattus norvegicus = species on record: Rattus norvegicus; conditions: Compound concentration 10.0 uM
[45] = target: Alpha-1D adrenergic receptor (Homo sapiens) (UniProt P25100); conditions: Compound concentration 10.0 uM

Sequence of Ribosomal protein S6 kinase alpha-1 (Homo sapiens) (Q15418 whole entry): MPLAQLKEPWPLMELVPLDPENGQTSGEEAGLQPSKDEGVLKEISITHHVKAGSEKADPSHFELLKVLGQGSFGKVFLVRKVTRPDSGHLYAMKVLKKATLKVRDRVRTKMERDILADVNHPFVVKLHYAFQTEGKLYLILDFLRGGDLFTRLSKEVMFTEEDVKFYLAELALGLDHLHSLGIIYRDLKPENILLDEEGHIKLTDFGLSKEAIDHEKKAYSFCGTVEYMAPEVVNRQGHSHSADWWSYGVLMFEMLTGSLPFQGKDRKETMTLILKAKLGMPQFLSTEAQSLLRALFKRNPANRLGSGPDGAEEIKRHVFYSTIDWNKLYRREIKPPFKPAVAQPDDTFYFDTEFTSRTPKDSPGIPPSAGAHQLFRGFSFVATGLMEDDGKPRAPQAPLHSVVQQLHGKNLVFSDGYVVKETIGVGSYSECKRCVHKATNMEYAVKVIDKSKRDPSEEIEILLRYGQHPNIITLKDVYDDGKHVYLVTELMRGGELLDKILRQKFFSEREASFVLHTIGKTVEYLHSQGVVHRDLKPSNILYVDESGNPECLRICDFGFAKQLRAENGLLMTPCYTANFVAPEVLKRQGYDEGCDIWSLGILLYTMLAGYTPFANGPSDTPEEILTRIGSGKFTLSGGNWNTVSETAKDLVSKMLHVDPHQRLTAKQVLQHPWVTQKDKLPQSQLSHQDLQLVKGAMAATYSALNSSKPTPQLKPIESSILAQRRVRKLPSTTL
Sequence of Ephrin type-B receptor 3 (Homo sapiens) (P54753 whole entry): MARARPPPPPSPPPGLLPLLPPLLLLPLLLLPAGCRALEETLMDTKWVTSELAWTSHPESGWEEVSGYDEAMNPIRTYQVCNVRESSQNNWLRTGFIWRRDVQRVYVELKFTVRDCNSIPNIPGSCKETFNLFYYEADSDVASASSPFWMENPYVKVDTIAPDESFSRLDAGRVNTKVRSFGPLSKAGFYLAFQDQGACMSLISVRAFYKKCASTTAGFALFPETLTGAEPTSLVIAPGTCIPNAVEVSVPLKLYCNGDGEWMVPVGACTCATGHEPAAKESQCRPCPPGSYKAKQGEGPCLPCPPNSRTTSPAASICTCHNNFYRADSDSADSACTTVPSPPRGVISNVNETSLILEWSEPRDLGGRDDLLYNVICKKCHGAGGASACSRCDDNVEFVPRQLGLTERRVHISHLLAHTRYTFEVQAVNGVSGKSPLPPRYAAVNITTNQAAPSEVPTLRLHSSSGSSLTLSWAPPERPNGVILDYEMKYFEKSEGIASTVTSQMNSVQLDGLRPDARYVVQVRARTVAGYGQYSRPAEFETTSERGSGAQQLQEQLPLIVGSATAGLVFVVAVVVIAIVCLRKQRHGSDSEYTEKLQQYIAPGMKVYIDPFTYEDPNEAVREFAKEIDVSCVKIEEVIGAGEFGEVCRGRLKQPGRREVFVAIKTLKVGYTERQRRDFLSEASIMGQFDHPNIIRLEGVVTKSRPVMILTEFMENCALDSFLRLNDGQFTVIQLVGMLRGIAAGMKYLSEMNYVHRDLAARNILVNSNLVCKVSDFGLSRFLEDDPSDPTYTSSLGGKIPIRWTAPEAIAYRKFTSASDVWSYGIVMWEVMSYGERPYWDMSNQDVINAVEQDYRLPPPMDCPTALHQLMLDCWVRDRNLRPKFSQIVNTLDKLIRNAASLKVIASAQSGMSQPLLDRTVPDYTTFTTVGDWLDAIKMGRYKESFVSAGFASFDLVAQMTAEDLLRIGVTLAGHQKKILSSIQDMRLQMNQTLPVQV
Sequence of Megakaryocyte-associated tyrosine-protein kinase (Homo sapiens) (P42679 whole entry, the tested form may be a part): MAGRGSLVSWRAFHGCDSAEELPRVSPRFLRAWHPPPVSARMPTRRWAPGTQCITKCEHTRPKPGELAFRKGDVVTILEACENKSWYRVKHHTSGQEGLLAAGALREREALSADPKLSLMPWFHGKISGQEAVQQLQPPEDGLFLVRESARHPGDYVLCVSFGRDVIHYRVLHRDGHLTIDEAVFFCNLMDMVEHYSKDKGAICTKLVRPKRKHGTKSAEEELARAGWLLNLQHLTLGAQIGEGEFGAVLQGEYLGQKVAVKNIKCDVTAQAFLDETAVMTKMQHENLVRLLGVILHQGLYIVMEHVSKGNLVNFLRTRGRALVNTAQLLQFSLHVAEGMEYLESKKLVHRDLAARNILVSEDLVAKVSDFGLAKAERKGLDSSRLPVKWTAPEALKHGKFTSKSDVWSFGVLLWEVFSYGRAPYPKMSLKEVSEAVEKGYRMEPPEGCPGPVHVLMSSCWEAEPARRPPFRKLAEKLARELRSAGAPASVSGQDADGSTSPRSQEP
Sequence of Insulin receptor-related protein (Homo sapiens) (P14616 27-742 limits assumed): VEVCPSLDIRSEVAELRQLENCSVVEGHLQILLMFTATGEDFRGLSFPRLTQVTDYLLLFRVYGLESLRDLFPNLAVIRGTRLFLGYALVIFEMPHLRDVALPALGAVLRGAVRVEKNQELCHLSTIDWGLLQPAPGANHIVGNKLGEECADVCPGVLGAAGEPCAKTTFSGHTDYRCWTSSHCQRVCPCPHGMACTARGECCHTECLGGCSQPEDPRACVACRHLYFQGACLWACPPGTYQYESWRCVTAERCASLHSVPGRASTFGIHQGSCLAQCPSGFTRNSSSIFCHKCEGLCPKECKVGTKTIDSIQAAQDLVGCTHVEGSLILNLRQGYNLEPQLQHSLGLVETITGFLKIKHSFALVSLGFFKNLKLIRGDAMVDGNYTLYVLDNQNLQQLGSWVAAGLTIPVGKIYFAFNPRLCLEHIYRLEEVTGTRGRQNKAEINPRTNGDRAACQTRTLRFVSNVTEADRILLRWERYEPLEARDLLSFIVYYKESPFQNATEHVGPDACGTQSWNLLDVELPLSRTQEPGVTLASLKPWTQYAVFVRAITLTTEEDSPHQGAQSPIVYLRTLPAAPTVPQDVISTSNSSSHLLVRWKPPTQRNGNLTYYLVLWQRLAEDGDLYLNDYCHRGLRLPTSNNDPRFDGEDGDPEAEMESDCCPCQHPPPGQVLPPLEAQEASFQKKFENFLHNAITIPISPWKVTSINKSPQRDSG
Sequence of Insulin receptor-related protein (Homo sapiens) (P14616 747-1297 limits assumed): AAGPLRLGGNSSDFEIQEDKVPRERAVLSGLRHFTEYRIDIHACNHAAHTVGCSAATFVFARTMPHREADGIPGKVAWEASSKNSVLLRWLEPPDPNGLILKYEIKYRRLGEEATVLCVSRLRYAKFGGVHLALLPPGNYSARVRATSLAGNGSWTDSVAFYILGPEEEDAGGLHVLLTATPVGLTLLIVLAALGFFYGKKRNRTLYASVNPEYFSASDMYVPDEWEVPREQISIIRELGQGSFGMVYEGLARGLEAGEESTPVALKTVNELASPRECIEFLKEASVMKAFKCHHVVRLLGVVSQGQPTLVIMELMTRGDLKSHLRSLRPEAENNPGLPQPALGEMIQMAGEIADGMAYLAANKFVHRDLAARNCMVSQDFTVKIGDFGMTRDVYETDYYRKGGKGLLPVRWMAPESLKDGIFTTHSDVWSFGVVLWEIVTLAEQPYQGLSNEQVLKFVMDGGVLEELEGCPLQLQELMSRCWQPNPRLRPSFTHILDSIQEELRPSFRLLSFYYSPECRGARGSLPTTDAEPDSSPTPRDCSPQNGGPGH
Sequence of Atypical kinase COQ8A, mitochondrial (Homo sapiens) (Q8NI60 163-647 limits assumed): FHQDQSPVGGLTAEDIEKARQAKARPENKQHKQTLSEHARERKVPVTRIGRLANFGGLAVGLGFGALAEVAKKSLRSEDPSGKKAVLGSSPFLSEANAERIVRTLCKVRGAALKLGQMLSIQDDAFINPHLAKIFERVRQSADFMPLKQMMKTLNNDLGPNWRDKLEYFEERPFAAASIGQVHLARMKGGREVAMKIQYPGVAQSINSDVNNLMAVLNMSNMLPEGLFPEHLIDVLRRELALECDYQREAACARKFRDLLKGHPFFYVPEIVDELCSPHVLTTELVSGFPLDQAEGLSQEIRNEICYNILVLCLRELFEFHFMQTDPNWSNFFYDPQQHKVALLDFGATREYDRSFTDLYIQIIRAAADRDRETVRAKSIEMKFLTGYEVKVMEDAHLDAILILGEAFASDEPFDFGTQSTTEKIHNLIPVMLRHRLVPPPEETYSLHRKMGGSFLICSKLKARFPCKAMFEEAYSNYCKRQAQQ
Sequence of Mitogen-activated protein kinase 12 (Homo sapiens) (P53778 whole entry): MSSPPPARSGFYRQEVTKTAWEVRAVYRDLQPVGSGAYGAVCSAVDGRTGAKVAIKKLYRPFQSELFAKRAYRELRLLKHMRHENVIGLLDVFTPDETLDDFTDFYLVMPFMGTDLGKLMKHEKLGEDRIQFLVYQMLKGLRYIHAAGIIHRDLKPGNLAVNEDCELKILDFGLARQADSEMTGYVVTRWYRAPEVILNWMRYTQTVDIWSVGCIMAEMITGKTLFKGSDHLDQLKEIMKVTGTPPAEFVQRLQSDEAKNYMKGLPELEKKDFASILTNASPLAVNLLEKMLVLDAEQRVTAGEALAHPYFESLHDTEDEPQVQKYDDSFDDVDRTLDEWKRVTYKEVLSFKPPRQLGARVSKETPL
Sequence of Cyclin-dependent kinase-like 3 (Homo sapiens) (Q8IVW4 whole entry, looked up): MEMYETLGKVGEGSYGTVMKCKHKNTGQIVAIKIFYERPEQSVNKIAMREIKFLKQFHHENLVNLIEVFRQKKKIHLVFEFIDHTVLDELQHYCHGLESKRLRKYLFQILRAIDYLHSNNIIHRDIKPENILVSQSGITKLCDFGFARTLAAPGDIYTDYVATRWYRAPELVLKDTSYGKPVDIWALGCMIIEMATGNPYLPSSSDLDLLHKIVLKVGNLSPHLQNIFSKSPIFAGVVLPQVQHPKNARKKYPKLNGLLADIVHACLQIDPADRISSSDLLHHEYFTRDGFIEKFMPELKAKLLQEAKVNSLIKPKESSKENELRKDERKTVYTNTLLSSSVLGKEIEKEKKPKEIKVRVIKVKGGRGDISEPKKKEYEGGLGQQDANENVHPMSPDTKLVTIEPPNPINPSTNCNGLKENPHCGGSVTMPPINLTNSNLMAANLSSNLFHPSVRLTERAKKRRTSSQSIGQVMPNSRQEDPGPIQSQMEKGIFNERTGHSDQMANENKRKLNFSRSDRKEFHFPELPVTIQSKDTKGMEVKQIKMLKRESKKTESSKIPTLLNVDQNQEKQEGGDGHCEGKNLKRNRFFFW

C[C@@H](c1cccc(C#N)c1)n1cc(Cl)cc(C(N)=O)c1=N [(S)-9s]
residual activity [1]: 0%
residual activity [2]: 100%
residual activity [3]: 89%
residual activity [4]: 100%
residual activity [5]: 93%
residual activity [6]: 79%
residual activity [7]: 100%
residual activity [8]: 100%
residual activity [9]: 85%
residual activity [10]: 100%
residual activity [11]: 100%
residual activity [12]: 88%
residual activity [13]: 77%
residual activity [14]: 91%
residual activity [15]: 80%
residual activity [16]: 85%
residual activity [17]: 100%
residual activity [18]: 67%
residual activity [19]: 87%
residual activity [20]: 100%
residual activity [21]: 96%
residual activity [22]: 100%
residual activity [23]: 100%
residual activity [24]: 96%
residual activity [25]: 67%
residual activity [26]: 82%
residual activity [27]: 99%
residual activity [28]: 89%
residual activity [29]: 93%
residual activity [30]: 73%
residual activity [31]: 100%
residual activity [32]: 85%
residual activity [33]: 89%
residual activity [34]: 100%
residual activity [35]: 74%
residual activity [36]: 100%
residual activity [37]: 100%
residual activity [38]: 84%
residual activity [39]: 81%
residual activity [40]: 94%
residual activity [41]: 75%
inhibition [42]: 7.75%
inhibition [43]: 16.1%
inhibition [44]: 14.9%
inhibition (Rattus norvegicus): 1.07%
inhibition [45]: 60.5%

C[C@H](c1cccc(C#N)c1)n1cc(Cl)cc(C(N)=O)c1=N [(R)-9s]
residual activity [1]: 83%
residual activity [2]: 100%
residual activity [3]: 88%
residual activity [4]: 100%
residual activity [5]: 68%
residual activity [6]: 82%
residual activity [7]: 100%
residual activity [8]: 100%
residual activity [9]: 88%
residual activity [10]: 96%
residual activity [11]: 100%
residual activity [12]: 100%
residual activity [13]: 97%
residual activity [14]: 86%
residual activity [15]: 66%
residual activity [16]: 78%
residual activity [17]: 97%
residual activity [18]: 43%
residual activity [19]: 80%
residual activity [20]: 98%
residual activity [21]: 100%
residual activity [22]: 100%
residual activity [23]: 100%
residual activity [24]: 100%
residual activity [25]: 73%
residual activity [26]: 100%
residual activity [27]: 100%
residual activity [28]: 97%
residual activity [29]: 100%
residual activity [30]: 100%
residual activity [31]: 100%
residual activity [32]: 100%
residual activity [33]: 83%
residual activity [34]: 94%
residual activity [35]: 68%
residual activity [36]: 100%
residual activity [37]: 97%
residual activity [38]: 82%
residual activity [39]: 100%
residual activity [40]: 75%
residual activity [41]: 64%
inhibition [42]: 6.03%
inhibition [43]: 10.7%
inhibition [44]: 9.11%
inhibition (Rattus norvegicus): 10.7%
inhibition [45]: 93.3%
